Data on 1 substance can be found in patent US20090318551A1, “USES OF ANALOGS OF 3-O-ACETYL-11-KETO-BETA-BOSWELLIC ACID” (priority 2004, published 2009).

The test system of one assay is Artemia salina. Briefly: Brine shrimp lethality (BSL) assay. The format is in vivo. Conditions: nauplii, viability/mortality after 24 hr. The source says: Brine shrimp lethality (BSL) assay is a simple bench top bioassay developed by McLaughlin, et. al. (Studies in Natural Product Chemistry, 9, page 383, 1991 and Am. Chem. Soc. Symp. Series, 534, page 114, 1992) and the results obtained by this assay have been reported to be corroborative with the cytotoxicities determined in 9KB and 9PS cells. The procedure involves hatching Artemia salina cysts in a cone shaped vessel and collecting active nauplii after 48 hr and treating with known concentrations of test substances and vehicle (control) in tubes each tube containing 10 nauplii and checking viability/mortality after 24 hr. Percentage lethality was calculated by comparing mean values of control and test sets of three tubes each. LC50 values were obtained from the graph plotted micro molar concentration against percent lethality.

For a further assay, the system named is 5-Lipoxygenase. The experiment in a line: 5-Lox assay (colorimetric, ferric xylenol orange). The format is biochemical. Particulars: linoleic acid substrate, pH 6.3. Here is the method:
The AKBA analogs were screened for their 5-Lipoxygenase inhibitory potential using colorimetric method of Craig A. Gay et al (Anal Biochem., 304, 42 46, 2002). The assay mixture contained 50 mM phosphate buffer pH 6.3, 5-Lipoxygenase, various concentrations of test substances and linoleic acid in a total volume of 0.5 mL after 5 min incubation of above reaction mixture 0.5 ml ferric xylenol orange reagent was added and OD was measured after two minutes at 585 nm using spectrophotometer (varian). Controls were run along with test in a similar manner except using vehicle instead of test substance solution. Percent inhibition was calculated by comparing absorbance of test with that of control

The next assay addresses T1, 5-LO (Homo sapiens, UniProt P09917).
T1 sequence (P09917 1-674): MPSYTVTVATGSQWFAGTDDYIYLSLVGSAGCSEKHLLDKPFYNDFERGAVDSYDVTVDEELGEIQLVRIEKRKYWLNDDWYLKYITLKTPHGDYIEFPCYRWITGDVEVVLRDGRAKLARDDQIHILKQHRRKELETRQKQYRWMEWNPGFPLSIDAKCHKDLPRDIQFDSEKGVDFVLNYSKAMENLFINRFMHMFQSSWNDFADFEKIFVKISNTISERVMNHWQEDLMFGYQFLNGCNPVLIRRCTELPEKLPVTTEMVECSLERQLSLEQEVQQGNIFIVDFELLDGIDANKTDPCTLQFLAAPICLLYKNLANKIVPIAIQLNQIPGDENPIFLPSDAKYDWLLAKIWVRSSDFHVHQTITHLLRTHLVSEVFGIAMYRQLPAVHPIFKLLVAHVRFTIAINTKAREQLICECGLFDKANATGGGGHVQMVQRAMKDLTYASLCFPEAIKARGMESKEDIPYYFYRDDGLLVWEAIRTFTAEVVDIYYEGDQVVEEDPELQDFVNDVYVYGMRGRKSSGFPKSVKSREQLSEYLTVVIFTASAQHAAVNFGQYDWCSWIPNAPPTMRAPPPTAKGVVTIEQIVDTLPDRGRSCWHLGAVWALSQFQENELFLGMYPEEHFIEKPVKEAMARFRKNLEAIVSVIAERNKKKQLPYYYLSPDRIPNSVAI
Conditions: compared with the six boswellic acids; cited from earlier work.

“3-O-Acetyl-11-keto-β-boswellic acid [Compound B2, reference compound]”: in the assay on Artemia salina, the “LD50 in mcM” value was found to be 5.5 mcM. Further, the “% inhibition @ 100 μM” value in the assay with 5-Lipoxygenase (100 μM test substance) came out at 18.7%. Besides, the “% inhibition @ 250 μM” value in the assay on 5-Lipoxygenase (250 μM test substance) came out at 31%. Moreover, the “inhibitory activity against 5-LO (in words)” value at 5-LO is reported as “most pronounced inhibitory activity against 5-LO”.
